From patent US20250170154A1 (GreenStone Biosciences, Inc., priority 2023, published 2025)
Like-named read-outs stand apart in the source and are kept apart here.

Columns and labels:
[1] = Approximate solubility in selected solvents by visual observation; assay type: physicochemical; settings: thermodynamic from solid
Method: Solubility testing of compound 2 was carried out by adding 20 μL aliquots (to a maximum of 1 mL) of selected solvents (water, methanol, DCM, and THF) to about 5 mg samples of compound 2 at 25 C with vortexing and sonication; and the approximate solubility determined by visual observation. Similar testing was carried out at 50 C, using about 10 mg samples of compound 2.

[2] = Conjugate formation in intestinal S9 incubations; assay type: in vitro ADME, human, rat, mouse
Method: The stability of compounds 1 and 2, and the control compound 7-hydroxycoumarin, were measured using human, rat, and mouse intestinal S9 fractions (Xenotech). Test compound working solutions were prepared by diluting 5 μL of 10 mM stock solutions in DMSO with 495 μL AN. S9 solutions were prepared by diluting the obtained S9 solutions to 1.0 mg/mL in 100 mM potassium phosphate buffer at pH 7.4 containing 10 mM D-saccharic acid-1,4-lactone. An Apricot automation workstation was used to add 100 μL/well of S9 solution to all reaction plates (Blank, T0, T5, T15, T30, T45, T60 and NCF60); 2 μL/well of compound working solutions were added to all 96-well reaction plates except the blank (T0, T5, T15, T30, T45, T60, and NCF60); 600 μL/well of stop solution (4° C. ACN containing 200 ng/mL tolbutamide and 200 ng/mL labetalol as internal standards) was added to the T0 reaction plate; all plates were pre-incubated at 37° C. for 10 minutes; a cofactor regenerating system (98 μL/well) was added, excluding the NCF60 plate which instead received 98 μL/well of 100 mM potassium phosphate buffer. All plates were then incubated at 37° C. To terminate reactions, 600 μL/well of stop solution was applied at specific end time points. After sealing and a 10-minute shaking, plates were centrifuged at 4000 rpm and 4° C. for 20 minutes. […]

[3] = Pharmacokinetics in the rat, solid form (powder in mini-capsules); assay type: in vivo; settings: rat, in vivo
log P = assay type: physicochemical
Myh6-Cre:FLNC^wt/F mouse = assay: FLNC knockout model, echocardiography; assay type: in vivo; settings: 50 mg/Kg/day by gavage for 6 weeks
Method: The LMNA^H222P/H222P mouse is a well-established model for studying dilated cardiomyopathy and heart failure, with cardiac dysfunction typically beginning to manifest at around 16 weeks of age. In this study, 16-week-old LMNA^H222P/H222P mice underwent baseline echocardiography prior to treatment. Compound 2 was then administered continuously for 4 weeks using osmotic pumps, with DMSO as the vehicle control. At the end of the treatment period, echocardiography was performed again to assess the impact of compound 2 on cardiac function compared to the control group. […] In a FLNC knockout model using the Myh6-Cre:FLNC^wt/F mouse, 16-week-old mice underwent baseline echocardiography, were treated with compound 2 at 50 mg/Kg/day or vehicle by gavage for 6 weeks, and underwent echocardiography to assess the change in cardiac function. […] The genistein phosphate derivatives of this invention are therefore expected to be useful for the treatment of subjects with dilated cardiomyopathy.

mdx mice = assay: mdx mice, blood cytokine analysis; assay type: in vivo, mouse; settings: 20 mg/Kg/day by gavage, four-month-old mdx mice
From the text: Dis., 21, 579-589 (2011), “Duchenne muscular dystrophy (DMD) is the most common lethal X-linked recessive disorder, affecting 1 in 3500 live male births. DMD children show early symptoms of muscle degeneration, frequently develop contractures, and lose the ability to walk by 13 years of age. With disease. progression, most patients succumb to death from respiratory failure and cardiac dysfunction in early adulthood. The primary cause of this disease stems from the lack of the protein dystrophin, which is essential for the structural and functional integrity of muscle membrane. Dystrophin absence results in membrane damage, allowing massive infiltration of immune cells, chronic inflammation, necrosis, and severe muscle degeneration . . . . […] The genistein phosphate derivatives of this invention are therefore expected to be useful for the treatment of subjects with Duchenne muscular dystrophy.

[4] = test system: mice with DSS-induced colitis; assay: DSS-induced colitis in mice; assay type: in vivo, mouse; settings: 50 mg/Kg daily by gavage
Method: Mice, placed on a soy-free diet for 14 days, were administered 3.5% DSS in their drinking water for 8 days to induce colitis, and either untreated or treated with compound 2 at 50 mg/Kg daily by gavage from day 1 (prevention) or from day 5 (intervention); and monitored for clinical indicators of colitis, including stool consistency, rectal bleeding, and changes in body weight. […] The genistein phosphate derivatives of this invention are therefore expected to be useful for the treatment of subjects with inflammatory bowel disease, ulcerative colitis, and Crohn's disease.

[5] = test system: chondrocyte pellets differentiated from human mesenchymal stem cells (MSCs); assay: Mini-joint model, IL-1β inflamed chondrocyte pellets, PCR analysis; assay type: cell-based; settings: up to 5 μM with 0.01 ng/mL IL-1β for 3 days
Method: In the mini-joint model, human mesenchymal stem cells (MSCs) were differentiated into chondrocytes in pellet culture over a period of 3 weeks. The chondrocyte pellets were then maintained in a medium containing 0.5 ng/mL of TGF-β for 1 week. Inflammation was induced by treating the pellets with 1 ng/mL of IL-1β for 1 day. Following this, the pellets were treated with compound 2 at up to 5 μM together with 0.01 ng/mL of IL-1β to sustain the inflammatory environment for 3 days. At the conclusion of the treatment, the pellets were collected for PCR analysis.

[6] = both prevention and intervention modes

O=c1c(-c2ccc(O)cc2)coc2cc(OCOP(=O)(O)O)cc(O)c12 [Compound 2, ((5-Hydroxy-3-(4-hydroxyphenyl)-4-oxo-4H-chromen-7-yl)oxy)methyl dihydrogen phosphate]
solubility ([1]; 25 °C, organic solvent or mixture, THF, both 25 and 50° C., read-out: solubility in THF): 125000 to 250000 µg/mL
solubility ([1]; 25 °C, organic solvent or mixture, methanol, both 25 and 50° C., read-out: solubility in methanol): > 250000 µg/mL
solubility ([1]; organic solvent or mixture, DCM, 25° C., read-out: solubility in DCM): < 5000 µg/mL
solubility ([1]; water, 25° C., approximate, visual observation, read-out: solubility in water): < 5000 µg/mL
solubility ([1]; water, 50° C., approximate, visual observation, read-out: solubility in water): ~5000 µg/mL
formation of glucuronidation, sulfation, and glutathione conjugates [2]: noticeable absence
half-life ([3]; male, SD, po): ~2 h
Tmax ([3]; male, SD, po, 100 mg/kg): ~0.167 h
decline of plasma concentration of dosed compound ([3]; 100 mg/kg): slower rapid decline in concentration than for solution dosing
logP (log P): 1.59
contractility (fractional shortening) from baseline (Myh6-Cre:FLNC^wt/F mouse): statistically significantly improved
contractility over vehicle-treated animals (Myh6-Cre:FLNC^wt/F mouse): improved
left ventricular end-diastolic diameter (Myh6-Cre:FLNC^wt/F mouse; over vehicle-treated animals): reduced
left ventricular end-systolic diameter (Myh6-Cre:FLNC^wt/F mouse; over vehicle-treated animals): reduced
Leptin in blood (mdx mice): significantly reduced
blood cytokines BAFF, BTC, CCL7, CCL11, CSF3, CXCL10, IL-1α, IL-1β, IL-5, IL-10, IL-18, IL-19, IL-2RA, IL-7RA, LIF, MIP-10, MIP2, TNF-α, VEGF (mdx mice): appeared to be reduced
weight loss ([4]; both prevention (from day 1) and intervention (from day 5) modes, 3.5% DSS): reduced
colon length [4, 6]: improved
diarrhea [4, 6]: reduced
histology of the colon [4, 6]: histological improvement
rectal bleeding [4, 6]: reduced
COL2 expression [5]: increasing
MMP12 expression [5]: decreasing
TNF-α expression [5]: decreasing
chondrogenesis (expression of collagen A) [5]: promote
